# Results published in ChEMBL document CHEMBL4627344, “Synthesis, biological evaluation and virtual screening of some acridone derivatives as potential anticancer agents” (2020).
# Tests used:
# Type in all cases: functional
# CCRF-CEM [1] = assay: Antiproliferative activity against human CCRF-CEM cells assessed as inhibition of cell growth at 10 uM measured after 48 hrs by SRB assay relative to control; settings: read-out: GI
# COLO 205 [2] = assay: Antiproliferative activity against human COLO205 cells assessed as inhibition of cell growth at 10 uM measured after 48 hrs by SRB assay relative to control; settings: COLO 205, 48 h, read-out: GI
# HCC 2998 = assay: Antiproliferative activity against human HCC2998 cells assessed as inhibition of cell growth at 10 uM measured after 48 hrs by SRB assay relative to control; settings: HCC 2998, 48 h, read-out: GI
# HCT-15 [3] = assay: Antiproliferative activity against human HCT15 cells assessed as inhibition of cell growth at 10 uM measured after 48 hrs by SRB assay relative to control; settings: HCT-15, 48 h, read-out: GI
# KM12 = assay: Antiproliferative activity against human KM12 cells assessed as inhibition of cell growth at 10 uM measured after 48 hrs by SRB assay relative to control; settings: KM12, 48 h, read-out: GI
# U-251 [4] = assay: Antiproliferative activity against human U251 cells assessed as inhibition of cell growth at 10 uM measured after 48 hrs by SRB assay relative to control; settings: U-251, 48 h, read-out: GI
# MDA-MB-435 = assay: Antiproliferative activity against human MDA-MB-435 cells assessed as inhibition of cell growth at 10 uM measured after 48 hrs by SRB assay relative to control; settings: MDA-MB-435, 48 h, read-out: GI
# IGROV-1 = assay: Antiproliferative activity against human IGROV1 cells assessed as inhibition of cell growth at 10 uM measured after 48 hrs by SRB assay relative to control; settings: IGROV-1, 48 h, read-out: GI
# OVCAR-5 = assay: Antiproliferative activity against human OVCAR5 cells assessed as inhibition of cell growth at 10 uM measured after 48 hrs by SRB assay relative to control; settings: OVCAR-5, 48 h, read-out: GI
# A498 = assay: Antiproliferative activity against human A498 cells assessed as inhibition of cell growth at 10 uM measured after 48 hrs by SRB assay relative to control; settings: A498, 48 h, read-out: GI
# CAKI-1 = assay: Antiproliferative activity against human CAKI-1 cells assessed as inhibition of cell growth at 10 uM measured after 48 hrs by SRB assay relative to control; settings: CAKI-1, 48 h, read-out: GI
# RXF 393 = assay: Antiproliferative activity against human RXF393 cells assessed as inhibition of cell growth at 10 uM measured after 48 hrs by SRB assay relative to control; settings: RXF 393, 48 h, read-out: GI
# PC-3 = assay: Antiproliferative activity against human PC3 cells assessed as inhibition of cell growth at 10 uM measured after 48 hrs by SRB assay relative to control; settings: PC-3, 48 h, read-out: GI
# MDA-MB-231 = assay: Antiproliferative activity against human MDA-MB-231 cells assessed as inhibition of cell growth at 10 uM measured after 48 hrs by SRB assay relative to control; settings: MDA-MB-231, 48 h, read-out: GI
# BT-549 [5] = assay: Antiproliferative activity against human BT549 cells assessed as inhibition of cell growth at 10 uM measured after 48 hrs by SRB assay relative to control; settings: BT-549, 48 h, read-out: GI
# MDA-MB-468 = assay: Antiproliferative activity against human MDA-MB-468 cells assessed as inhibition of cell growth at 10 uM measured after 48 hrs by SRB assay relative to control; settings: MDA-MB-468, 48 h, read-out: GI
# CCRF-CEM [6] = assay: Antiproliferative activity against human CCRF-CEM cells assessed as inhibition of cell growth measured after 48 hrs by SRB assay
# HL-60(TB) = assay: Antiproliferative activity against human HL-60(TB) cells assessed as inhibition of cell growth measured after 48 hrs by SRB assay; settings: HL-60, 48 h
# K562 = assay: Antiproliferative activity against human K562 cells assessed as inhibition of cell growth measured after 48 hrs by SRB assay; settings: K562, 48 h
# SR = assay: Antiproliferative activity against human SR cells assessed as inhibition of cell growth measured after 48 hrs by SRB assay
# EKVX = assay: Antiproliferative activity against human EKVX cells assessed as inhibition of cell growth measured after 48 hrs by SRB assay
# HOP-62 = assay: Antiproliferative activity against human HOP62 cells assessed as inhibition of cell growth measured after 48 hrs by SRB assay; settings: HOP-62, 48 h
# NCI-H522 = assay: Antiproliferative activity against human NCI-H522 cells assessed as inhibition of cell growth measured after 48 hrs by SRB assay; settings: NCI-H522, 48 h
# COLO 205 [7] = assay: Antiproliferative activity against human COLO205 cells assessed as inhibition of cell growth measured after 48 hrs by SRB assay; settings: COLO 205, 48 h
# HCT-116 = assay: Antiproliferative activity against human HCT116 cells assessed as inhibition of cell growth measured after 48 hrs by SRB assay; settings: HCT-116, 48 h
# HCT-15 [8] = assay: Antiproliferative activity against human HCT15 cells assessed as inhibition of cell growth measured after 48 hrs by SRB assay; settings: HCT-15, 48 h
# SF-295 = assay: Antiproliferative activity against human SF295 cells assessed as inhibition of cell growth measured after 48 hrs by SRB assay; settings: SF-295, 48 h
# LOX IMVI = assay: Antiproliferative activity against human LOXIMVI cells assessed as inhibition of cell growth measured after 48 hrs by SRB assay
# UACC-62 = assay: Antiproliferative activity against human UACC62 cells assessed as inhibition of cell growth measured after 48 hrs by SRB assay; settings: UACC-62, 48 h
# OVCAR-3 = assay: Antiproliferative activity against human OVCAR3 cells assessed as inhibition of cell growth measured after 48 hrs by SRB assay; settings: OVCAR-3, 48 h
# ACHN = assay: Antiproliferative activity against human ACHN cells assessed as inhibition of cell growth measured after 48 hrs by SRB assay
# UO-31 = assay: Antiproliferative activity against human UO31 cells assessed as inhibition of cell growth measured after 48 hrs by SRB assay; settings: UO-31, 48 h
# Hs-578T = assay: Antiproliferative activity against human Hs 578T cells assessed as inhibition of cell growth measured after 48 hrs by SRB assay
# NCI-H226 = assay: Antiproliferative activity against human NCI-H226 cells assessed as inhibition of cell growth measured after 48 hrs by SRB assay; settings: NCI-H226, 48 h
# U-251 [9] = assay: Antiproliferative activity against human U251 cells assessed as inhibition of cell growth measured after 48 hrs by SRB assay; settings: U-251, 48 h
# BT-549 [10] = assay: Antiproliferative activity against human BT549 cells assessed as inhibition of cell growth measured after 48 hrs by SRB assay; settings: BT-549, 48 h
structure (smiles),measurement,setting,value
COc1ccc2nc3c(cc2c1)C(=O)CC(C(F)(F)F)C3 (configuration not stated),inhibition of growth at 10 µM,CCRF-CEM [1],90.1%
same,inhibition of growth at 10 µM,COLO 205 [2],90.9%
same,inhibition of growth at 10 µM,HCC 2998,16%
same,inhibition of growth at 10 µM,HCT-15 [3],62.2%
same,inhibition of growth at 10 µM,KM12,88.4%
same,inhibition of growth at 10 µM,U-251 [4],15.3%
same,inhibition of growth at 10 µM,MDA-MB-435,148%
same,inhibition of growth at 10 µM,IGROV-1,63.4%
same,inhibition of growth at 10 µM,OVCAR-5,42.3%
same,inhibition of growth at 10 µM,A498,108%
same,inhibition of growth at 10 µM,CAKI-1,63%
same,inhibition of growth at 10 µM,RXF 393,102%
same,inhibition of growth at 10 µM,PC-3,67%
same,inhibition of growth at 10 µM,MDA-MB-231,40%
same,inhibition of growth at 10 µM,BT-549 [5],39.1%
same,inhibition of growth at 10 µM,MDA-MB-468,64.4%
same,GI50,CCRF-CEM [6],238 nM
same,GI50,HL-60(TB),325 nM
same,GI50,K562,437 nM
same,GI50,SR,217 nM
same,GI50,EKVX,4190 nM
same,GI50,HOP-62,3610 nM
same,GI50,NCI-H522,582 nM
same,GI50,COLO 205 [7],1160 nM
same,GI50,HCT-116,133 nM
same,GI50,HCT-15 [8],1370 nM
same,GI50,SF-295,853 nM
same,GI50,LOX IMVI,3080 nM
same,GI50,UACC-62,697 nM
same,GI50,OVCAR-3,1830 nM
same,GI50,ACHN,768 nM
same,GI50,UO-31,2000 nM
same,GI50,Hs-578T,3350 nM
O=C1CC(c2ccccc2)Cc2nc3ccc(Br)cc3cc21 (configuration not stated),inhibition of growth at 10 µM,CCRF-CEM [1],91.5%
same,inhibition of growth at 10 µM,COLO 205 [2],136%
same,inhibition of growth at 10 µM,HCC 2998,73%
same,inhibition of growth at 10 µM,HCT-15 [3],84%
same,inhibition of growth at 10 µM,KM12,91.1%
same,inhibition of growth at 10 µM,U-251 [4],81.9%
same,inhibition of growth at 10 µM,MDA-MB-435,140%
same,inhibition of growth at 10 µM,IGROV-1,78%
same,inhibition of growth at 10 µM,OVCAR-5,72.8%
same,inhibition of growth at 10 µM,A498,112%
same,inhibition of growth at 10 µM,CAKI-1,69.3%
same,inhibition of growth at 10 µM,RXF 393,71.6%
same,inhibition of growth at 10 µM,PC-3,68%
same,inhibition of growth at 10 µM,MDA-MB-231,86.8%
same,inhibition of growth at 10 µM,BT-549 [5],93.5%
same,inhibition of growth at 10 µM,MDA-MB-468,99.7%
same,GI50,CCRF-CEM [6],49.8 nM
same,GI50,HL-60(TB),214 nM
same,GI50,K562,175 nM
same,GI50,SR,56.7 nM
same,GI50,EKVX,756 nM
same,GI50,HOP-62,354 nM
same,GI50,NCI-H226,2250 nM
same,GI50,NCI-H522,236 nM
same,GI50,COLO 205 [7],261 nM
same,GI50,HCT-116,51.5 nM
same,GI50,HCT-15 [8],528 nM
same,GI50,SF-295,206 nM
same,GI50,U-251 [9],553 nM
same,GI50,LOX IMVI,707 nM
same,GI50,UACC-62,444 nM
same,GI50,OVCAR-3,289 nM
same,GI50,ACHN,583 nM
same,GI50,UO-31,640 nM
same,GI50,Hs-578T,411 nM
same,GI50,BT-549 [10],685 nM
COc1ccc2nc3c(cc2c1)C(=O)CC(c1ccccc1)C3 (configuration not stated),inhibition of growth at 10 µM,CCRF-CEM [1],89.3%
same,inhibition of growth at 10 µM,COLO 205 [2],98.1%
same,inhibition of growth at 10 µM,HCC 2998,8.74%
same,inhibition of growth at 10 µM,HCT-15 [3],75.2%
same,inhibition of growth at 10 µM,KM12,89.2%
same,inhibition of growth at 10 µM,U-251 [4],55%
same,inhibition of growth at 10 µM,MDA-MB-435,168%
same,inhibition of growth at 10 µM,IGROV-1,64.2%
same,inhibition of growth at 10 µM,OVCAR-5,38.8%
same,inhibition of growth at 10 µM,A498,113%
same,inhibition of growth at 10 µM,CAKI-1,68.7%
same,inhibition of growth at 10 µM,RXF 393,103%
same,inhibition of growth at 10 µM,PC-3,71.2%
same,inhibition of growth at 10 µM,MDA-MB-231,45.4%
same,inhibition of growth at 10 µM,BT-549 [5],48.3%
same,inhibition of growth at 10 µM,MDA-MB-468,31.7%
same,GI50,CCRF-CEM [6],322 nM
same,GI50,HL-60(TB),274 nM
same,GI50,K562,344 nM
same,GI50,SR,322 nM
same,GI50,EKVX,5920 nM
same,GI50,HOP-62,1960 nM
same,GI50,NCI-H522,471 nM
same,GI50,COLO 205 [7],608 nM
same,GI50,HCT-116,432 nM
same,GI50,HCT-15 [8],2680 nM
same,GI50,SF-295,634 nM
same,GI50,LOX IMVI,887 nM
same,GI50,UACC-62,728 nM
same,GI50,OVCAR-3,1230 nM
same,GI50,ACHN,756 nM
same,GI50,UO-31,543 nM
same,GI50,Hs-578T,1000 nM
same,GI50,BT-549 [10],2210 nM
O=C1CC(c2ccccc2)Cc2nc3c(Br)cc(Br)cc3cc21 (configuration not stated),inhibition of growth at 10 µM,COLO 205 [2],148%
same,inhibition of growth at 10 µM,HCC 2998,93.5%
same,inhibition of growth at 10 µM,HCT-15 [3],89.7%
same,inhibition of growth at 10 µM,KM12,98%
same,inhibition of growth at 10 µM,U-251 [4],91.4%
same,inhibition of growth at 10 µM,MDA-MB-435,124%
same,inhibition of growth at 10 µM,IGROV-1,84.8%
same,inhibition of growth at 10 µM,OVCAR-5,52.9%
same,inhibition of growth at 10 µM,CAKI-1,98.8%
same,inhibition of growth at 10 µM,RXF 393,70%
same,inhibition of growth at 10 µM,PC-3,77.4%
same,inhibition of growth at 10 µM,MDA-MB-231,84.9%
same,inhibition of growth at 10 µM,BT-549 [5],94.7%
same,inhibition of growth at 10 µM,MDA-MB-468,116%
same,GI50,CCRF-CEM [6],88.9 nM
same,GI50,HL-60(TB),226 nM
same,GI50,K562,67.6 nM
same,GI50,SR,91.3 nM
same,GI50,EKVX,391 nM
same,GI50,HOP-62,180 nM
same,GI50,NCI-H226,241 nM
same,GI50,NCI-H522,137 nM
same,GI50,COLO 205 [7],152 nM
same,GI50,HCT-116,47.8 nM
same,GI50,HCT-15 [8],312 nM
same,GI50,SF-295,196 nM
same,GI50,U-251 [9],421 nM
same,GI50,LOX IMVI,758 nM
same,GI50,UACC-62,338 nM
same,GI50,OVCAR-3,30.2 nM
same,GI50,ACHN,595 nM
same,GI50,UO-31,79.5 nM
same,GI50,Hs-578T,191 nM
same,GI50,BT-549 [10],541 nM
